Holding throughout (format): cell-based
Test [1] has as its system vancomycin resistant Enterococci. Nature of the test: Assay for in vitro antibacterial activity, agar dilution method: VRE. Particulars: for Antibacterial Activity (MIC50) VRE: agar dilution method, vancomycin resistant Enterococci. (In agar dilution, organisms are placed on agar that contains the substance at set levels.)
The subject of another test is H. Influenzae. As to the kind of experiment: Assay for in vitro antibacterial activity, agar dilution method: H. Influenzae.
Test [2] has as its system methicillin resistant Staphylococcus aureus. Nature of the test: Assay for in vitro antibacterial activity, agar dilution method: MRSA. Particulars: for Antibacterial Activity (MIC50) MRSA: agar dilution method, methicillin resistant Staphylococcus aureus.
Test [3] has as its system ATCC 27294: Vancomycine Mycobacterium tuberculosis. As to the kind of experiment: Assay for in vitro antibacterial activity, agar dilution method: ATCC 27294. As to conditions: for Antibacterial Activity (MIC50) ATCC 27294: agar dilution method, Vancomycine Mycobacterium tuberculosis; for MIC50: Mycobacterium tuberculosis, ATCC27294, read-out: Antibacterial Activity (MIC50) ATCC 27294.

≈ marks a conversion by molar mass, not a printed value.

Take `CC(=O)NC[C@H]1CN(c2ccc(-c3ccc(-n4cncn4)nc3)c(F)c2)C(=O)O1` [Exmp. 129, (S)-[N-3-(4-(2-(1,2,4-triazol-1-yl)pyridin-5-yl)-3-fluorophenyl)-2-oxo-5-oxazolidinyl]methyl acetamide]: in test [1], the “Antibacterial Activity (MIC50) VRE” value was determined as 0.2 µg/mL. The “Antibacterial Activity (MIC50) Influenzae” value in the test with H. Influenzae is 6.25 µg/mL. Also, in test [2], the “Antibacterial Activity (MIC50) MRSA” value turned out to be 0.39 µg/mL. In addition, in test [3], the “Antibacterial Activity (MIC50) ATCC 27294” value was determined as 0.1 µg/mL.
For `CC(=O)NC[C@H]1CN(c2ccc(-c3ccc(-n4cnnn4)nc3)c(F)c2)C(=O)O1` [Exmp. 136, (S)-(N-3-(4-(2-(1-tetrazolyl)-pyridin-5-yl)-3-fluorophenyl)-2-oxo-5-oxazolidinyl)methyl acetamide], the “Antibacterial Activity (MIC50) VRE” value in test [1] is 0.2 µg/mL. The “Antibacterial Activity (MIC50) Influenzae” value in the test on H. Influenzae stood at 12.5 µg/mL. The “Antibacterial Activity (MIC50) MRSA” value in test [2] worked out at 0.78 µg/mL. In test [3], the “Antibacterial Activity (MIC50) ATCC 27294” value turned out to be 0.1 µg/mL.
For `CC(=O)NC[C@H]1CN(c2ccc(-c3ccc(N4CCOC4=O)nc3)c(F)c2)C(=O)O1` [Exmp. 143, (S)-[N-3-(4-(2-(2-oxo-(1,3)-oxazolidin-3-yl)-pyridin-5-yl)-3-fluorophenyl)-2-oxo-5-oxazolidinyl]methyl acetamide] the same measures were 0.2 µg/mL, 1.56 µg/mL, 0.78 µg/mL and 0.1 µg/mL.
For `CC(=O)NC[C@H]1CN(c2ccc(-c3ccc(-c4nnnn4C)nc3)c(F)c2)C(=O)O1` [Exmp. 139, (S)-[N-3-(4-(2-(1-methyl-5-tetrazolyl)-pyridin-5-yl)-3-fluorophenyl)-2-oxo-5-oxazolidinyl]methyl acetamide], in test [1], the “Antibacterial Activity (MIC50) VRE” value came to 0.2 µg/mL. Moreover, in the test on H. Influenzae, the “Antibacterial Activity (MIC50) Influenzae” value came to 3.13 µg/mL. Also, in test [2], the “Antibacterial Activity (MIC50) MRSA” value is 0.78 µg/mL. Also, in test [3], the “Antibacterial Activity (MIC50) ATCC 27294” value was determined as 0.1 µg/mL.
Turning to `CC(=O)NC[C@H]1CN(c2ccc(N3CCOCC3)c(F)c2)C(=O)O1` [Example U-100766, reference compound], the MIC50 in test [1] (Enterococcus, VRE, read-out: Antibacterial Activity (MIC50) VRE) was determined as 1.56 µg/mL (≈ 4.62 µM); in the test on H. Influenzae (Haemophilus influenzae), 25 µg/mL (≈ 74.1 µM); in test [2] (Staphylococcus aureus, MRSA, read-out: Antibacterial Activity (MIC50) MRSA), 3.13 µg/mL (≈ 9.28 µM); in test [3], 1.56 µg/mL (≈ 4.62 µM).
Turning to `CC(=O)NC[C@H]1CN(c2ccc(-c3ccc(-c4nnn(C)n4)nc3)c(F)c2)C(=O)O1` [Exmp. 140, (S)-[N-3-(4-(2-(2-methyl-5-tetrazolyl)-pyridin-5-yl)-3-fluorophenyl)-2-oxo-5-oxazolidinyl]methyl acetamide], in test [1], the “Antibacterial Activity (MIC50) VRE” value was found to be 0.2 µg/mL. In addition, the “Antibacterial Activity (MIC50) Influenzae” value in the test with H. Influenzae was determined as 12.5 µg/mL. Further, the “Antibacterial Activity (MIC50) MRSA” value in test [2] is 0.78 µg/mL. Besides, the “Antibacterial Activity (MIC50) ATCC 27294” value in test [3] amounted to 0.1 µg/mL.
Consider `CC(=O)NC[C@H]1CN(c2ccc(-c3ccc(-c4nnc(C)o4)nc3)c(F)c2)C(=O)O1` [Exmp. 137, (S)-[N-3-(4-(2-(5-methyl-(1,3,4)-oxadiazol-2-yl)-pyridin-5-yl)-3-fluorophenyl)-2-oxo-5-oxazolidinyl]methyl acetamide], for which the “Antibacterial Activity (MIC50) VRE” value in test [1] was found to be 0.2 µg/mL. For the same molecule, in the test with H. Influenzae, the “Antibacterial Activity (MIC50) Influenzae” value is 3.13 µg/mL. The “Antibacterial Activity (MIC50) MRSA” value in test [2] is 0.39 µg/mL. The “Antibacterial Activity (MIC50) ATCC 27294” value in test [3] came to 0.1 µg/mL.
For the molecule `N[C@@H]1CON=C1O` [Cycloserine, reference compound], the MIC50 in test [3] worked out at 6.25 µg/mL (≈ 61.2 µM).
Consider `CC(=O)NC[C@H]1CN(c2ccc(-c3ccc(-c4noc(C)n4)nc3)c(F)c2)C(=O)O1` [Exmp. 138, (S)-[N-3-(4-(2-(5-methyl-(1,2,4)-oxadiazol-3-yl)pyridin-5-yl)-3-fluorophenyl)-2-oxo-5-oxazolidinyl]methyl acetamide], for which, in test [1], the “Antibacterial Activity (MIC50) VRE” value is 0.39 µg/mL. In addition, the “Antibacterial Activity (MIC50) Influenzae” value in the test with H. Influenzae came out at 3.13 µg/mL. Further, the “Antibacterial Activity (MIC50) MRSA” value in test [2] came to 0.78 µg/mL. The “Antibacterial Activity (MIC50) ATCC 27294” value in test [3] amounted to 0.1 µg/mL.
As to `CO[C@H]1/C=C/O[C@@]2(C)Oc3c(C)c(O)c4c(O)c(c(/C=N/N5CCN(C)CC5)c(O)c4c3C2=O)NC(=O)/C(C)=C\C=C\[C@H](C)[C@H](O)[C@@H](C)[C@@H](O)[C@@H](C)[C@H](OC(C)=O)[C@@H]1C` [Rifampin, reference compound], in test [3], the MIC50 worked out at 0.2 µg/mL (≈ 0.243 µM).
For `CC(=O)NC[C@H]1CN(c2ccc(-c3ccc(-c4nnn[nH]4)nc3)c(F)c2)C(=O)O1` [Exmp. 152, (S)-[N-3-(4-(2-(5-Tetrazolyl)-5-pyridinyl)-3-fluorophenyl)-2-oxo-5-oxazolidinyl]methyl Acetamide], the “Antibacterial Activity (MIC50) VRE” value in test [1] was over 25 µg/mL. Also, the “Antibacterial Activity (MIC50) Influenzae” value with H. Influenzae is over 25 µg/mL. Besides, in test [2], the “Antibacterial Activity (MIC50) MRSA” value was over 25 µg/mL. For the same molecule, the “Antibacterial Activity (MIC50) ATCC 27294” value in test [3] was over 25 µg/mL.

The record behind these values is patent US6689779B2, “Oxazolidinone derivatives and a process for the preparation thereof” (priority 2000, dated 2004).
